From patent US20160045513A1, “ISOXAZOLE COMPOUND FOR THE TREATMENT OF CANCER” (Novartis AG, priority 2007, published 2016)

Key:
BN472 xenograft = assay: antitumor effect in the rat breast cancer model BN-472; format: in vivo; conditions: for T/C (%) / ΔTumor volume (mm^3): qw, i.v.; for ΔTumor volume (mm^3): mean ±SEM
Procedure: The transplantable rat breast cancer tumor BN472 is serially passaged as fragments in female syngeneic Brown Norway rats. The injection site is orthotopically in the mammary fat pad. Treatment with AUY922 is initiated when the average tumor volume reaches approximately 100 mm^3. Tumor growth is monitored at regular intervals. The xenograft tumor sizes are measured manually with calipers and the tumor volume is estimated using the formula: (W×L^2×π/6), where width (W) and height (H) are the two largest diameters. Results are presented as mean ±SEM. Tumor data were analyzed by ANOVA with post hoc Dunnet's test for comparison of treatment versus control group. As a measure of efficacy the % T/C value is calculated at the end of the experiment according to: (Δtumor volumetreated/Δtumor volumecontrol)*100 where Δtumor volumes represent the mean tumor volume on the evaluation day minus the mean tumor volume at the start of the experiment. The antitumor effect of AUY922 is evaluated in the BN472 xenograft model. Each group consists of seven tumor bearing animals. At the end of the study, the tumor sizes in the treatment groups are compared to those of the vehicle treated groups and the effect is expressed as %T/C.

MAXF 1322 = assay: clonogenic assay, human tumor xenografts in vitro; format: cell-based; conditions: Breast, MAXF 1322, Pap. adeno carcinoma, soft agar, read-out: IC50 (nM), colony formation
Procedure: (§1) The anticancer activity of 5-(2,4-Dihydroxy-5-isopropyl-phenyl)-4-(4-morpholin-4-ylmethyl-phenyl)-isoxazole-3-carboxylic acid ethylamide is evaluated in 30 human tumor xenografts in vitro using a clonogenic assay. In this assay, human cells derived from cancer patients are evaluated for the capacity of 5-(2,4-Dihydroxy-5-isopropyl-phenyl)-4-(4-morpholin-4-ylmethyl-phenyl)-isoxazole-3-carboxylic acid ethylamide to inhibit the formation of 3 dimensional colonies. […] The tumor xenografts which have never been cultured in cell culture plastic dishes are isolated from nude mice. Tumor cell suspensions are prepared and incubated in 24 well plates containing layers of soft agar. Under these conditions a special subpopulation of cells selectively grows to colonies. 5-(2,4-Dihydroxy-5-isopropyl-phenyl)-4-(4-morpholin-4-ylmethyl-phenyl)-isoxazole-3-carboxylic acid ethylamide was tested in 6 concentrations up to […]. The tumor test panel comprises 1 to 6 models of 10 different human tumor or cancer types, which were bladder cancer, colon, liver, non small cell lung (adeno, squamous epithelium and large cell), small cell lung, mammary, ovary, pancreatic, melanoma and pleuramesothelioma. Antitumor effects are recorded as inhibition of colony formation in relation to untreated controls. Further information on the method has been published (Burger et al., 2004; Fiebig et al., 2004; Smith et al., 2005).
(§2) The cells are continually exposed to 5-(2,4-Dihydroxy-5-isopropyl-phenyl)-4-(4-morpholin-4-ylmethyl-phenyl)-isoxazole-3-carboxylic acid ethylamide and colony formation is determined.

MEXF 672 = assay: clonogenic assay, human tumor xenografts in vitro; format: cell-based; conditions: Melanoma, MEXF 672, Amelanotic melanoma, soft agar, read-out: IC50 (nM), colony formation
Procedure: as §1, §2

LXFS 615 = assay: clonogenic assay, human tumor xenografts in vitro; format: cell-based; conditions: Lung, small cell, LXFS 615, Small cell lung carcinoma, soft agar, read-out: IC50 (nM), colony formation
Procedure: as §1, §2

LXFA 629 = assay: clonogenic assay, human tumor xenografts in vitro; format: cell-based; conditions: Lung, non-small cell, LXFA 629, Adeno carcinoma, soft agar, read-out: IC50 (nM), colony formation
Procedure: as §1, §2

BXF 1228 = assay: clonogenic assay, human tumor xenografts in vitro; format: cell-based; conditions: Bladder, BXF 1228, Transitional cell carcinoma, soft agar, read-out: IC50 (nM), colony formation
Procedure: as §1, §2

MAXF 401 = assay: clonogenic assay, human tumor xenografts in vitro; format: cell-based; conditions: MAXF401, Breast, MAXF 401, Pap. adeno carcinoma, soft agar, read-out: IC50 (nM), colony formation
Procedure: as §1, §2

OVXF 1544 = assay: clonogenic assay, human tumor xenografts in vitro; format: cell-based; conditions: Ovary, OVXF 1544, Carcinoma, soft agar, read-out: IC50 (nM), colony formation
Procedure: as §1, §2

BXF 1218 = assay: clonogenic assay, human tumor xenografts in vitro; format: cell-based; conditions: Bladder, BXF 1218, Transitional cell carcinoma, soft agar, read-out: IC50 (nM), colony formation
Procedure: as §1, §2

CXF 1103 = assay: clonogenic assay, human tumor xenografts in vitro; format: cell-based; conditions: CXF1103, Colon, CXF 1103, Adeno carcinoma, soft agar, read-out: IC50 (nM), colony formation
Procedure: as §1, §2

CXF 1729 = assay: clonogenic assay, human tumor xenografts in vitro; format: cell-based; conditions: Colon, CXF 1729, Carcinoma, soft agar, read-out: IC50 (nM), colony formation
Procedure: as §1, §2

LXFL 1647 = assay: clonogenic assay, human tumor xenografts in vitro; format: cell-based; conditions: Lung, non-small cell, LXFL 1647, Large cell lung carcinoma, soft agar, read-out: IC50 (nM), colony formation
Procedure: as §1, §2

MEXF 1539 = assay: clonogenic assay, human tumor xenografts in vitro; format: cell-based; conditions: Melanoma, MEXF 1539, Melanoma, soft agar, read-out: IC50 (nM), colony formation
Procedure: as §1, §2

LXFA 983 = assay: clonogenic assay, human tumor xenografts in vitro; format: cell-based; conditions: Lung, non-small cell, LXFA 983, Adeno carcinoma, soft agar, read-out: IC50 (nM), colony formation
Procedure: as §1, §2

LXFS 650 = assay: clonogenic assay, human tumor xenografts in vitro; format: cell-based; conditions: Lung, small cell, LXFS 650, Small cell lung carcinoma, soft agar, read-out: IC50 (nM), colony formation
Procedure: as §1, §2

LIXF 575 = assay: clonogenic assay, human tumor xenografts in vitro; format: cell-based; conditions: Liver, LIXF 575, Hepatocellular carcinoma, soft agar, read-out: IC50 (nM), colony formation
Procedure: as §1, §2

CXF 1784 = assay: clonogenic assay, human tumor xenografts in vitro; format: cell-based; conditions: Colon, CXF 1784, Carcinoma, soft agar, read-out: IC50 (nM), colony formation
Procedure: as §1, §2

IC50 (MAXF 1322): 29 nM
IC50 (MEXF 672): 18 nM
IC50 (LXFS 615): 30 nM
IC50 (LXFA 629): 35 nM
IC50 (BXF 1228): 630 nM
IC50 (MAXF 401): 78 nM
IC50 (OVXF 1544): 53 nM
IC50 (BXF 1218): 27 nM
IC50 (CXF 1103): 13 nM
IC50 (CXF 1729): 467 nM
IC50 (LXFL 1647): 34 nM
IC50 (MEXF 1539): 3 nM
IC50 (LXFA 983): 126 nM
IC50 (LXFS 650): 2 nM
IC50 (LIXF 575): 34 nM
IC50 (CXF 1784): 418 nM
Compound: CCNC(=O)c1noc(-c2cc(C(C)C)c(O)cc2O)c1-c1ccc(CN2CCOCC2)cc1 [AUY922, 5-(2,4-Dihydroxy-5-isopropyl-phenyl)-4-(4-morpholin-4-ylmethyl-phenyl)-isoxazole-3-carboxylic acid ethylamide]
T/C (%) (BN472 xenograft; 25 mg/kg): 78%
ΔTumor volume (mm^3) (BN472 xenograft; 25 mg/kg): 4357 ± 1338 mm^3
T/C (%) (BN472 xenograft; 50 mg/kg): 21%
ΔTumor volume (mm^3) (BN472 xenograft; 50 mg/kg, *P < 0.05): 1148 ± 152* mm^3
reduction of tumor sizes versus vehicle (BN472 xenograft; once per week at 50 mg/kg): Statistically significant reduction of tumor sizes
